Data published in patent EP0267994B2, “The use of a metal complex for the manufacture of a composition for treating dental structures” (NATIONAL RESEARCH LABORATORIES, priority 1986, dated 1988).
Where “and” joins values, the source holds several entries; their conditions need not be identical. Equal values may be shown once.

Test: case series: professional polishing of the six lower front teeth of heavy calculus formers with MCC paste
Format: in vivo, human
Experimental: This is an example of a series of cases of patients who have been confirmed as heavy calculus formers that were treated with the 1:1 metal complex. Generally, the medication utilized was composed of the active ingredient, disodium monocopper(II) citrate (MCC), C.A.S. Registry Number: 65330-59-8, dispersed in an aqueous vehicle comprising aluminum hydroxide, dicalcium phosphate, sorbitol, carboxymethylcellulose and water to form a paste. All of the cases incorporated herewith, as an example, were confirmed diagnostically by a dentist employing the usual examining techniques, i.e., physical examination, etc. The ages of the patients who participated in this example ranged from 35 to 73 years.
All of the patients in this example, prior to their treatment with the 1:1 metal complexes, had self-treated. In self-treating, all patients brushed with a standard dentifrice, flossed, and applied a mixture of baking soda, salt and water to their teeth at least once a day to contain or control calculus build up. Subsequent to and in conjunction with self-treatment, each patient received professionally a standard course of therapy which involved routinely scaling the teeth with a hand pick and an ultrasonic scaler and polishing the teeth mechanically with a mixture of pumice and stannous fluoride via a rubber prophylaxis cup. The patients in this example were treated every 3, 4 or 6 months and the length of standard treatment by the dentist ranged from about 4 years to about 12 years.
At the time of the first examination by the dentist, each patient's mouth was in extremely poor condition, and gross calculus build up was observed; however, no caries or restorations were present.
Subsequent to the standard professional therapy, treatment of all sides of the six lower front teeth with MCC were initiated and performed by the dentist every 3, 4 or 6 months for a total of 10 months. Treatment consisted of first scaling the six lower front teeth with a hand pick and an ultrasonic scaler to debride the teeth and then polishing the teeth mechanically with the above described MCC mixture via a rubber prophylaxis cup. […] The overall appearance of the six lower front teeth was excellent. […] For a more detailed presentation of this example, see the following table.

SMILES: O=C([O-])CC(O)(CC(=O)[O-])C(=O)O.[Cu+2] [MCC, disodium-monocopper(II) citrate]
- Amt. of Calculus after Application of MCC (Calculus Accumulation code 1 = worst condition, 10 = best condition (total absence of accumulation), one value per patient, six lower front teeth, MCC paste every 3, 4 or 6 months for 10 months): +8 (2×) and +9 (2×) and +7
- overall appearance of the six lower front teeth (after therapy with the copper complex): excellent
- calculus accumulation on the six lower front teeth (all patients, compared to the remaining teeth treated with the standard therapy): dramatic reduction in calculus accumulation
- side effects or tissue irritation (five patients, treatment over 10 months): no side effects or tissue irritation
- taste complaint (two of five patients): metallic taste from the MCC mixture which subsided immediately upon rinsing
